Assay results published in PubChem BioAssay AID1963837 (Molecular Pharmacology Branch, DTP, NCI, 2024).

Tested on: 843126-344-R-J1-PDC complex spheroid viability
Experiment: Anticancer human tumor 843126-344-R-J1-PDC patient-derived melanoma cell line growth inhibition [POLQ]
Settings: for IC50: curve of first compound; for viability, T/C: stronger effect = lower value
Procedure, shortened: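 Complex spheroid viability model combining PDC tumour cells with endothelial (HUVEC) and MSC stromal cells. Novobiocin, ART-558 or RP6685 were tested singly and in combination with standard and investigational anticancer drugs. Each was titrated in half-log steps from near clinical Cmax, or from 10 microM where Cmax was unknown.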

[1] = second compound 0.0316 µM, first compound 0.0316 µM
[2] = second compound 0.0316 µM, first compound 0.1 µM
[3] = second compound 0.0316 µM, first compound 0.316 µM
[4] = second compound 0.0316 µM, first compound 1 µM
[5] = second compound 0.0316 µM, first compound 3.16 µM
[6] = second compound 0.0316 µM, first compound 10 µM
[7] = second compound 0.1 µM, first compound 0.0316 µM
[8] = second compound 0.1 µM, first compound 0.1 µM
[9] = second compound 0.1 µM, first compound 0.316 µM
[10] = second compound 0.1 µM, first compound 1 µM
[11] = second compound 0.1 µM, first compound 3.16 µM
[12] = second compound 0.1 µM, first compound 10 µM
[13] = second compound 0.316 µM, first compound 0.0316 µM
[14] = second compound 0.316 µM, first compound 0.1 µM
[15] = second compound 0.316 µM, first compound 0.316 µM
[16] = second compound 0.316 µM, first compound 1 µM
[17] = second compound 0.316 µM, first compound 3.16 µM
[18] = second compound 0.316 µM, first compound 10 µM
[19] = second compound 1 µM, first compound 0.0316 µM
[20] = second compound 1 µM, first compound 0.1 µM
[21] = second compound 1 µM, first compound 0.316 µM
[22] = second compound 1 µM, first compound 1 µM
[23] = second compound 1 µM, first compound 3.16 µM
[24] = second compound 1 µM, first compound 10 µM
[25] = second compound 3.16 µM, first compound 0.0316 µM
[26] = second compound 3.16 µM, first compound 0.1 µM
[27] = second compound 3.16 µM, first compound 0.316 µM
[28] = second compound 3.16 µM, first compound 1 µM
[29] = second compound 3.16 µM, first compound 3.16 µM
[30] = second compound 3.16 µM, first compound 10 µM
[31] = second compound 10 µM, first compound 0.0316 µM
[32] = second compound 10 µM, first compound 0.1 µM
[33] = second compound 10 µM, first compound 0.316 µM
[34] = second compound 10 µM, first compound 1 µM
[35] = second compound 10 µM, first compound 3.16 µM
[36] = second compound 10 µM, first compound 10 µM
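For viability, T/C in this document: spheroids exposed to drugs for seven days before readout.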

In the case of `CC1COCCN1c1cc(C2(S(C)(=N)=O)CC2)nc(-c2ccnc3[nH]ccc23)n1` (stereo unspecified) + COC1C(OC(N)=O)C(O)C(Oc2ccc3c(O)c(NC(=O)c4ccc(O)c(CC=C(C)C)c4)c(=O)oc3c2C)OC1(C)C, the IC50 (second compound 0.0316 µM) is reported as > 10000 nM, the IC50 (second compound 0.1 µM) is reported as > 10000 nM and the IC50 (second compound 0.316 µM) is reported as > 10000 nM. For the same molecule, the IC50 (second compound 1 µM) was 8620 nM, the IC50 (second compound 3.16 µM) was 9280 nM and the IC50 (second compound 10 µM) was 9690 nM. It also gave a viability, T/C [1] of 99%, a viability, T/C [2] of 98% and a viability, T/C [3] of 110%. For the same molecule, the viability, T/C [4] was 99.6%, the viability, T/C [5] was 59.2% and the viability, T/C [6] was 55.9%. The viability, T/C [7] was 90.9%, the viability, T/C [8] was 80.3% and the viability, T/C [9] was 97.6%. The viability, T/C [10] was 80.6%, the viability, T/C [11] was 65.7% and the viability, T/C [12] was 55.3%. For the same molecule, the viability, T/C [13] was 103%, the viability, T/C [14] was 79.8% and the viability, T/C [15] was 81.2%. It also gave a viability, T/C [16] of 89%, a viability, T/C [17] of 56.9% and a viability, T/C [18] of 53.5%. The viability, T/C [19] was 84.6%, the viability, T/C [20] was 88.3% and the viability, T/C [21] was 78.5%. The viability, T/C [22] was 96.3%, the viability, T/C [23] was 69.2% and the viability, T/C [24] was 47.1%. The viability, T/C [25] was 87.1%, the viability, T/C [26] was 89.1% and the viability, T/C [27] was 89%. It also gave a viability, T/C [28] of 79.5%, a viability, T/C [29] of 74% and a viability, T/C [30] of 48%. It also gave a viability, T/C [31] of 94.8%, a viability, T/C [32] of 101% and a viability, T/C [33] of 74.1%. For the same molecule, the viability, T/C [34] was 89.7%, the viability, T/C [35] was 69.3% and the viability, T/C [36] was 48.7%.
In the case of `CC1COCCN1c1cc(-c2ccnn2C)c2ccnc(-c3ccn[nH]3)c2n1` (stereo unspecified) + Nc1ccc(C#CCN(C(=O)Cc2ncc(C(F)(F)F)cc2C(F)(F)F)c2ccc(F)cc2)nn1, the IC50 (second compound 0.0316 µM) is reported as 943 nM, the IC50 (second compound 0.1 µM) is reported as 1110 nM and the IC50 (second compound 0.316 µM) is reported as 911 nM. It also gave an IC50 (second compound 1 µM) of 738 nM, an IC50 (second compound 3.16 µM) of 661 nM and an IC50 (second compound 10 µM) of 510 nM. The viability, T/C [1] was 89.6%, the viability, T/C [2] was 76.3% and the viability, T/C [3] was 65.3%. For the same molecule, the viability, T/C [4] was 48.7%, the viability, T/C [5] was 36.7% and the viability, T/C [6] was 29%. The viability, T/C [7] was 84.3%, the viability, T/C [8] was 71.2% and the viability, T/C [9] was 63.5%. The viability, T/C [10] was 48.3%, the viability, T/C [11] was 43.5% and the viability, T/C [12] was 28.6%. The viability, T/C [13] was 85.3%, the viability, T/C [14] was 77.2% and the viability, T/C [15] was 63.9%. For the same molecule, the viability, T/C [16] was 46.6%, the viability, T/C [17] was 40.6% and the viability, T/C [18] was 30.2%. The viability, T/C [19] was 84.6%, the viability, T/C [20] was 65.8% and the viability, T/C [21] was 55.9%. It also gave a viability, T/C [22] of 49.8%, a viability, T/C [23] of 41.3% and a viability, T/C [24] of 32.8%. For the same molecule, the viability, T/C [25] was 75.9%, the viability, T/C [26] was 70.8% and the viability, T/C [27] was 59.6%. For the same molecule, the viability, T/C [28] was 44.5%, the viability, T/C [29] was 34.5% and the viability, T/C [30] was 29.9%. It also gave a viability, T/C [31] of 73.4%, a viability, T/C [32] of 66.4% and a viability, T/C [33] of 52.8%. The viability, T/C [34] was 43.9%, the viability, T/C [35] was 36.9% and the viability, T/C [36] was 29.1%.
`C=CCn1c(=O)c2cnc(Nc3ccc(N4CCN(C)CC4)cc3)nc2n1-c1cccc(C(C)(C)O)n1` + COC1C(OC(N)=O)C(O)C(Oc2ccc3c(O)c(NC(=O)c4ccc(O)c(CC=C(C)C)c4)c(=O)oc3c2C)OC1(C)C was tested, and the IC50 (second compound 0.0316 µM) was > 1000 nM, the IC50 (second compound 0.1 µM) was > 1000 nM and the IC50 (second compound 0.316 µM) was > 1000 nM. The IC50 (second compound 1 µM) was > 1000 nM, the IC50 (second compound 3.16 µM) was > 1000 nM and the IC50 (second compound 10 µM) was > 1000 nM. For the same molecule, the viability, T/C (second compound 0.0316 µM, first compound 0.00316 µM) was 114%, the viability, T/C (second compound 0.0316 µM, first compound 0.01 µM) was 84% and the viability, T/C [1] was 86.6%. The viability, T/C [2] was 81.5%, the viability, T/C [3] was 89.4% and the viability, T/C [4] was 80%. It also gave a viability, T/C (second compound 0.1 µM, first compound 0.00316 µM) of 93.7%, a viability, T/C (second compound 0.1 µM, first compound 0.01 µM) of 90.4% and a viability, T/C [7] of 99.5%. The viability, T/C [8] was 82.8%, the viability, T/C [9] was 85.7% and the viability, T/C [10] was 70.6%. For the same molecule, the viability, T/C (second compound 0.316 µM, first compound 0.00316 µM) was 87%, the viability, T/C (second compound 0.316 µM, first compound 0.01 µM) was 115% and the viability, T/C [13] was 98.8%. For the same molecule, the viability, T/C [14] was 88.5%, the viability, T/C [15] was 81.2% and the viability, T/C [16] was 86.6%. The viability, T/C (second compound 1 µM, first compound 0.00316 µM) was 78.4%, the viability, T/C (second compound 1 µM, first compound 0.01 µM) was 90.3% and the viability, T/C [19] was 86.6%. The viability, T/C [20] was 85.1%, the viability, T/C [21] was 84.2% and the viability, T/C [22] was 76.9%. The viability, T/C (second compound 3.16 µM, first compound 0.00316 µM) was 83.6%, the viability, T/C (second compound 3.16 µM, first compound 0.01 µM) was 106% and the viability, T/C [25] was 98.5%. It also gave a viability, T/C [26] of 72.7%, a viability, T/C [27] of 81.7% and a viability, T/C [28] of 84.2%. For the same molecule, the viability, T/C (second compound 10 µM, first compound 0.00316 µM) was 89.8%, the viability, T/C (second compound 10 µM, first compound 0.01 µM) was 97.4% and the viability, T/C [31] was 94.8%. It also gave a viability, T/C [32] of 102%, a viability, T/C [33] of 91.9% and a viability, T/C [34] of 65%.
